pIC50: −log10 of the molar value. ≈ marks a conversion by molar mass, not a printed value. Like-named read-outs stand apart in the source and are kept apart here.
What was measured:
[1] = tested on: strains of A. baumannii and one strain of Acinetobacter sp.; assay: MIC without polymyxin B, panel of Acinetobacter strains (Example 4); type: cell-based
A. baumannii A387 [2] = assay: Preliminary MBC without and with sub-inhibitory polymyxin B (Example 4); type: cell-based, Acinetobacter baumannii
A. baumannii A473 = assay: MIC without and with sub-inhibitory polymyxin B (Example 4); type: cell-based, Acinetobacter baumannii
[3] = tested on: Acinetobacter sp. (H064200250); assay: Preliminary MBC without and with sub-inhibitory polymyxin B (Example 4); type: cell-based
Procedure: The plates were incubated for 18-20 hours at 37° C. The MBC was read as the lowest concentration at which colony growth was ca. 90% less than the positive control (i.e. usually where single colonies or no colonies were observed).

A. baumannii A387 [4] = assay: MIC without and with sub-inhibitory polymyxin B (Example 4); type: cell-based, Acinetobacter baumannii
Cytotoxicity (Example 7) = type: cell-based; settings: human, HEPG2 V1 cells
Procedure: The 4-oxoquinolizine compounds of the invention preferably have a low cytotoxicity against human cells. […].
Cytotoxicity was determined for the instant 4-oxoquinolizine compounds which show low cytotoxicity. (see Table 17 following). […]

S. pneumoniae 49619 = assay: MIC, panel of quinolone-resistant strains (Example 2); type: cell-based, Streptococcus pneumoniae; settings: Streptococcus pneumoniae, 49619; LEV S; read-out: MIC S. pneumoniae 49619
A. baumanii 19606 = assay: MIC, standard panel of Gram-positive and Gram-negative strains (Example 2); type: cell-based; settings: Acinetobacter baumannii
E. faecalis 29212 = assay: as above; type: cell-based, Enterococcus faecalis; settings: Enterococcus faecalis, 29212; read-out: MIC E. faecalis 29212
[5] = A. baumannii A387, +0.06 μg/ml PB, 2nd experiment
[6] = A. baumannii A387, without PB, 2nd experiment
[7] = A. baumannii A387, without polymyxin B, 1st experiment
[8] = A. baumannii A473, +0.06 μg/ml PB, 2nd experiment
[9] = A. baumannii A387, ratio, PB 0.06 μg/ml, 1st experiment
[10] = Acinetobacter baumannii, A387, A. baumannii A387, +0.06 μg/ml PB, 2nd experiment, read-out: MBC
[11] = Acinetobacter, Acinetobacter spp. H064200250 (OXA51), +[…] PB, preliminary MBC, 2nd experiment, read-out: MBC
[12] = Acinetobacter, read-out: MBC +[…] PB, Acinetobacter spp. H064200250, +[…] polymyxin B, preliminary MBC, 1st experiment
[13] = Acinetobacter baumannii, A387, read-out: MBC +0.06 μg/ml PB, A. baumannii A387, +0.06 μg/ml polymyxin B, 1st experiment
[14] = Acinetobacter baumannii, A473, A. baumannii A473, +0.06 μg/ml PB, 2nd experiment, read-out: MIC
[15] = Acinetobacter baumannii, A387, A. baumannii A387, +0.06 μg/ml PB, 2nd experiment, read-out: MIC
[16] = Acinetobacter baumannii, A387, read-out: MIC +0.06 μg/ml PB, A. baumannii A387, +0.06 μg/ml polymyxin B, 1st experiment

Row | Compound | MIC without PB/MIC + PB (A. baumannii A473; [8]) | MIC without PB/MIC + PB (A. baumannii A387 [4]; [5]) | MIC without PB/MIC + PB (A. baumannii A387 [4]; [9]) | MBC (A. baumannii A387 [2]; [10]) [µg/mL] | MBC [3, 11] [µg/mL] | MBC [3, 12] [µg/mL] | MBC (A. baumannii A387 [2]; [13]) [µg/mL] | MIC (A. baumannii A473; [14]) [µg/mL] | pIC50 (Cytotoxicity (Example 7)) | MIC (A. baumannii A387 [4]; [15]) [µg/mL] | MIC (A. baumannii A387 [4]; [16]) [µg/mL] | further results
1 | 8-[(3S)-3-aminocyclopentyl]-1- cyclopropyl-7-fluoro-9-methyl- 4-oxo-quinolizine-3-carboxylic acid [Compound 10, reference compound] | 0 | 1 | 1 | – | – | – | – | – | – | – | – | MIC range without PB Oct. 1, 2006 n = 8 ([1]; 1st experiment, resistant strains, ATCC 19606, A329, A390 and A473 not taken): 0.5 to 8 µg/mL; MIC range without PB Oct. 14, 2008 n = 11 ([1]; 2nd experiment, all strains except the ATCC strain): 0.5 to 2 µg/mL; MBC (A. baumannii A387 [2]; [5]): 0.5 µg/mL; MBC +0.06 μg/ml PB (A. baumannii A387 [2]; A. baumannii A387, +0.06 μg/ml polymyxin B, 1st experiment): 0.25 µg/mL; MBC (A. baumannii A387 [2]; [6]): 0.5 µg/mL; MBC without PB (A. baumannii A387 [2]; [7]): 0.5 µg/mL; MIC (A. baumannii A473; [8]): 0.5 µg/mL; MIC without PB (A. baumannii A473; A. baumannii A473, without polymyxin B, 1st experiment): 1 µg/mL; MBC ([3]; Acinetobacter spp. H064200250 (OXA51), +[…] PB, preliminary MBC, 2nd experiment): 0.5 µg/mL; MBC ([3]; Acinetobacter spp. H064200250 (OXA51), without PB, preliminary MBC, 2nd experiment): 1 µg/mL; MBC +[…] PB ([3]; Acinetobacter spp. H064200250, +[…] polymyxin B, preliminary MBC, 1st experiment): 1 µg/mL; MBC without PB ([3]; Acinetobacter spp. H064200250, without polymyxin B, preliminary MBC, 1st experiment): 0.5 µg/mL; MIC (A. baumannii A387 [4]; [5]): 0.5 µg/mL; MIC (A. baumannii A387 [4]; [6]): 0.5 µg/mL; MIC without PB (A. baumannii A387 [4]; [7]): 0.5 µg/mL
2 | NCC[C@H](O)C(=O)N[C@@H]1C[C@H](N)[C@@H](O[C@H]2O[C@H](CN)[C@@H](O)[C@H](O)[C@H]2O)[C@H](O)[C@H]1O[C@H]1O[C@H](CO)[C@@H](O)[C@H](N)[C@H]1O [Amikacin, reference compound] | ≥1 | ≥1 | ≥1 | 128 (≈ 219 µM) | 1 (≈ 1.71 µM) | 64 (≈ 109 µM) | – | – | – | – | – | MIC (A. baumannii A473; Acinetobacter baumannii, A473): 128 µg/mL (≈ 219 µM); MIC (A. baumannii A387 [4]; Acinetobacter baumannii, A387): 128 µg/mL (≈ 219 µM)
3 | Cc1c(-c2ccc(N)c(F)c2)ccn2c(=O)c(C(=O)O)cc(C3CC3)c12 [Compound 1, 8-(3-fluoro-4-amino-phenyl)-1-cyclopropyl-9-methyl-4-oxo-quinolizine-3-carboxylic acid] | 8 | ≥128 | ≥32 | ≤ 0.03 | – | 0.25 (≈ 0.709 µM) | ≤ 0.03 | 1 (≈ 2.84 µM) | 3.30 | ≤ 0.03 | ≤ 0.03 | MBC ([3]; Acinetobacter): ≤ 0.03 µg/mL
4 | Cc1c(-c2ccc(N)cc2)c(F)cn2c(=O)c(C(=O)O)cc(C3CC3)c12 [Compound 7, 8-(4-amino-phenyl)-1-cyclopropyl-7-fluoro-9-methyl-4-oxo-quinolizine-3-carboxylic acid] | 64 | ≥64 | ≥64 | ≤ 0.03 | ≤ 0.03 | 0.25 (≈ 0.709 µM) | ≤ 0.03 | 0.06 (≈ 0.17 µM) | 3.82 | ≤ 0.03 | ≤ 0.03 | MIC (S. pneumoniae 49619): 0.25 µg/mL (≈ 0.709 µM); MIC (A. baumanii 19606): 0.5 µg/mL (≈ 1.42 µM); MIC (E. faecalis 29212): 0.06 µg/mL (≈ 0.17 µM)

— patent US20190105367A1, “ANTIMICROBIAL 4-OXOQUINOLIZINES” (Emergent Product Development Gaithersburg Inc., priority 2011, published 2019)
